In brackets after ≈: the same amount, converted by molar mass.
Test: Determination of the water solubility by UV/visible spectroscopy
Format: physicochemical
Details: 23 °C, thermodynamic from solid; saturated solution in deionized water, 23±2° C.; read-out: Solubility
Protocol: The water solubility was determined in deionized water by UV/visible spectroscopy. The spectra were recorded with a UV/visible spectrometer (Evolution 600, Thermo Scientific) between 200-900 nm. The measurement was carried out in quartz cells (path length 10 mm). The pure solvent deionized water was used for the background spectrum. The background spectrum was subtracted from the spectra of the coinitiators.
Dilute solutions of the different coinitiators with known concentrations were prepared in deionized water. The absorption of the different coinitiators was measured in the absorption maximum (between 290-310 nm) and a linear relationship between the known concentrations and the measured absorptions was determined.
Saturated aqueous solutions of the coinitiators were diluted up to the point that the measured absorption falls in the linear region found above. The concentrations of the coinitiators in the saturated aqueous solutions are determined via the Lambert-Beer law.

Row | solubility | Compound
1 | 26 µg/mL (≈ 93.7 µM) | CCCCC(CC)COC(=O)c1ccc(N(C)C)cc1 (centres unmarked) [EHA, 2-Ethylhexyl 4-dimethylaminobenzoate]
2 | 36 µg/mL (≈ 186 µM) | CCOC(=O)c1ccc(N(C)C)cc1 [Ethyl 4-dimethylaminobenzoate]
3 | 427 µg/mL (≈ 2600 µM) | CN(C)c1ccc(C(N)=O)cc1 [4-Dimethylaminobenzamide]
4 | 680 µg/mL (≈ 3300 µM) | CCCNC(=O)c1ccc(N(C)C)cc1 [4-Dimethylamino-N-propylbenzamide]
5 | 278 µg/mL (≈ 1900 µM) | CN(C)c1ccc(C#N)cc1 [4-Dimethylaminobenzonitrile]
6 | 2670 µg/mL (≈ 12000 µM) | COCCNC(=O)c1ccc(N(C)C)cc1 [4-Dimethylamino-N-(2-methoxyethyl)benzamide]

Row | Compound | solubility
7 | CCCCOCCOC(=O)c1ccc(N(C)C)cc1 [2-(n-Butoxy)ethyl 4-dimethylaminobenzoate] | 35 µg/mL (≈ 132 µM)

Same assay, conditions: saturated solution in deionized water, 23±2° C.

Row | solubility | Compound
8 | > 766000 µg/mL | Polyethylene glycol monomethyl ether 4-dimethylaminobenzoate [PEGA]
